Measured values taken from US9289412B2, “Role of limonoid compounds as neuroprotective agents” (The Johns Hopkins University, priority 2006, dated 2016).

What was measured:
[1] = system: human fetal neuronal cultures; assay: 3-NP toxicity, MTT viability, human fetal neuron cultures; format: cell-based; details: 3-NP 3 mM; Limonin 0.1-10 μM
Description: (§1) FIG. 9 is a set of bar graphs showing the results of an MTT viability assay of human fetal neuron cultures in which the effect of (A) 3-NP (3 mM) or (B) 6-OHDA (100 μM) is tested alone or in the presence of a range of concentrations of Limonin (0.1-10 μM).
(§2) Finally, we sought to determine if the compounds tested in rat neuronal cultures would also be effective on cultured human fetal neurons.

[2] = system: mixed hippocampal cell cultures (6-OHDA neurotoxicity); assay: 6-OHDA neurotoxicity, MTT viability, mixed hippocampal cultures; format: cell-based, rat; details: 6-OHDA 100 μM
Description: (§3) FIG. 8 is a set of bar graphs showing the results of an MTT viability assay of mixed hippocampal cell cultures in which the effect of (A) NMDA (100 μM) or (B) 6-OHDA (100 μM) is tested alone or in the presence of a range of concentrations of Limonin (0.1-10 μM).
(§4) We also tested the ability of Limonin to protect against N-methyl-D-Aspartic Acid (NMDA) excitotoxicity, and 6-Hydroxydopamine (6-0HDA), a dopaminergic neurotoxin.

[3] = system: mixed hippocampal cell cultures (NMDA excitotoxicity); assay: NMDA excitotoxicity, MTT viability, mixed hippocampal cultures; format: cell-based, rat; details: NMDA 100 μM
Description: as §3, §4

[4] = system: human fetal neuronal cultures; assay: 6-OHDA toxicity, MTT viability, human fetal neuron cultures; format: cell-based; details: 6-OHDA 100 μM; Limonin 0.1-10 μM
Description: as §1, §2

[5] = system: hippocampal cultures (HIV-1 Tat toxicity); assay: HIV-1 Tat toxicity assay, MTT viability, mixed hippocampal cultures; format: cell-based, rat; details: Tat 500 nM; range of concentrations up to 10 μM
Source text: We sought to evaluate the protective efficacy of a number of modified terpenoid compounds against the against many different neurotoxins, ranging from the chemotoxic 6-OHDA, NMDA, 3-nitropropionic acid (3-NP), and viral proteins such as Tat and gp120. Thus, we established an in vitro neuroprotection assay using rat mixed hippocampal cultures, in which we evaluated the protective efficacy of neuroprotective compounds disclosed herein. The oxidative stressor 3-NP was used to elicit toxicity in the rat hippocampal cultures to mimic the oxidative damage, reactive oxygen species production and ensuing neurodegeneration resulting from HIV infection. Another measure of neurotoxicity which results from HIV infection was evaluated by exposure of the hippocampal cultures to HIV-1 Tat (Li et al (2005), Neurotox Res, 8(1-2): 119-134).
Rat mixed hippocamal neuronal cultures were generated from freshly dissected rat hippocampi (embryonic day 18) in neurobasal media containing 5% fetal bovine serum and 2% B27 supplement. The cells were plated into 96 well plates at a density of 4×10^5 cells/mL and routinely used on days 11-14 following culturing. Cell viability was assessed with MTT [3-(4,5-dimethylthiazol-2-yl)-2,5-diphenyltetrazolium bromide] assay. The MTT assay is based on the ability of a mitochondrial dehydrogenase enzyme from viable cells to cleave the tetrazolium rings of the pale yellow MTT and form dark blue formazan crystals. See Mosmann (1983), J Immunol Methods, 65(1-2):55-63. These crystals are largely impermeable to cell membranes, and thus accumulate within healthy cells. The resultant formazan precipitates are solubilized with DMSO and read on a multiwell scanning spectrophotometer (ELISA reader). The number of surviving cells is directly proportional to the level of the formazan product created.
Cultures were preincubated with GPI 1046 or Resveratrol for one hour prior to an 18 hour exposure to 3 mM 3-NP. […] The same neuroprotective compounds were evaluated for efficacy against HIV-1 Tat protein toxicity using the same 1 hour preincubation protocol.

CC1(C)O[C@H]2CC(=O)OC[C@]23[C@H]2CC[C@@]4(C)[C@H](c5ccoc5)OC(=O)[C@H]5O[C@]54[C@]2(C)C(=O)C[C@@H]13 [Limonin]
protection of human fetal neuronal cultures against 3-NP (FIG. 9A) [1]: dose-dependently protected
protection against 6-OHDA at highest dose ([2]; Limonin 10 μM): complete protection
dose dependence of block of 6-OHDA neurotoxicity (FIG. 8B) ([2]; Limonin 0.1-10 μM): dose-dependently blocked the neurotoxicity
protection against NMDA at highest dose ([3]; Limonin 10 μM): complete protection
dose dependence of block of NMDA neurotoxicity (FIG. 8A) ([3]; Limonin 0.1-10 μM): dose-dependently blocked the neurotoxicity
protection of human fetal neuronal cultures against 6-OHDA (FIG. 9B) [4]: dose-dependently protected
dose dependence of protection from HIV-1 Tat toxicity (FIG. 7) [5]: dose dependently protected
